Patent publication US9393190B2, “Methods for enhancing skin tan and reducing risks of UV skin damage” (DSM IP ASSETS B.V., priority 2009, dated 2016)

Tested on: Normal human melanocytes NHM (HEMn-MP, Clonetics)
Test: Quantification of melanin synthesis in cell culture (total melanin, absorbance at 405 nm)
Type: cell-based
Procedure: Quantification of Melanin Synthesis in Cell Culture:
Normal human melanocytes NHM (HEMn-MP, Clonetics) were seeded in 96 well cell culture plates and grown to sub-confluence for two days in a mixture of M2-Medium (Clonetics) and Medium (Promocell). Culture medium was exchanged with Culture Medium containing Steviol (96%) and melanogenesis progressed for another three days at 37° C. with another medium exchange on day two. Including cell layer and culture supernatant the total melanin was extracted using 1.7M KOH with vigorous shaking at RT. The total melanin content was determined at 405 nm in an absorbance plate reader versus a control (100%)

C=C1C[C@@]23CC[C@H]4[C@@](C)(CCC[C@@]4(C)C(=O)O)[C@@H]2CC[C@]1(O)C3 [Steviol]
effect on the production of melanin in human melanocytes (0.25 to 1 micro M): clear dose dependent positive effect
potency relative to positive control Glycyrrhizin (melanin production in human melanocytes): about 1000 times
